In US9302014B2, “Cell-penetrating peptides having a central hydrophobic domain” (Medical Research Council, priority 2011, dated 2016):
Non-standard residues stand in square brackets, D forms with d. No end group written: not given here. Ahx = NCCCCCC(=O)O; βAla = NCCC(=O)O

Columns and labels:
[1] = test system: dystrophin; assay: Immunohistochemical staining and quantification of dystrophin in mdx mice after single IV injection; format: in vivo; conditions: 8 week old mdx mice, single 12.5 mg/kg IV, 2 weeks after injection
From the text: Given the potency of Pip5e-PMO in heart tissue, the aim of altering the sequence of the hydrophobic core (whilst maintaining the 5-aa length) was to identify peptides that might be more efficient at lower doses. These modifications included inversion of the hydrophobic region (Pip6a), substitution of tyrosine by isoleucine (Pip6b), substitution of glutamine in the Pip6a sequence by displacement of the arginine immediately flanking the core in the first arginine-rich flanking region (Pip6e), and a scrambled hydrophobic core sequence (Pip6f). All Pip6 peptide-PMO conjugates were administered to mdx mice as single 12.5 mg/kg intravenous injections via the tail vein and tissues were harvested 2 weeks later and assessed for activity at both RNA and protein levels.
Immunohistochemical staining quantification (FIGS. 34a, b) was performed as previously described [Malerba, A., et al., Chronic systemic therapy with low-dose morpholino oligomers ameliorates the pathology and normalizes locomotor behavior in mdx mice. Mol Ther, 2011. 19(2): p. 345-54; Arechavala-Gomeza, V., et al., Immunohistological intensity measurements as a tool to assess sarcolemma-associated protein expression. Neuropathol Appl Neurobiol, 2010. 36(4): p. 265-74.] and was achieved by taking 4 representative frames of the dystrophin staining and correlating this with laminin staining for each section (n=3) of the quadriceps, diaphragm and heart for each peptide-PMO treatment. Untreated mdx and treated mdx mice were normalised to C57BL10 mice. This method allows comparison of the staining intensity of dystrophin at the sarcolemma relative to laminin for each treatment group. Intensity ratios are normalised to C57BL10 samples and each region of interest at the sarcolemma (120 regions for each treatment group) is plotted on a scatter graph. […]
Transverse sections of tissue samples were cut (8 μm thick) for the examination of dystrophin expression. For dystrophin visualisation and quantification, sections were co-stained with rabbit-anti-dystrophin (Abcam) and rat anti-laminin (Sigma), and detected by goat-anti-rabbit IgG Alexa 594 and goat-anti-rat IgG 488 secondary antibodies respectively (Invitrogen). […] Quantitative immunohistochemistry was performed as previously described [Malerba, A., et al., Chronic systemic therapy with low-dose morpholino oligomers ameliorates the pathology and normalizes locomotor behavior in mdx mice. […] For quantification, 4 representative frames of the dystrophin and correlating laminin were taken for each section (n=3) of the quadriceps, diaphragm and heart for each treatment. […] The minimum and maximum fluorescence intensity for 120 regions were recorded for each treatment. […]

[2] = test system: dystrophin; assay: Western blot quantification of dystrophin protein in mdx mouse muscles; format: in vivo; conditions: lead PPMO comparison; 8 week old mdx mice, 12.5 mg/kg IV, 2 weeks
Experimental: The RTPCR representative images (FIG. 34d) illustrate high exon skipping efficiency in all tissues analysed. This is better shown by Real Time PCR (qRT-PCR) results for the quadriceps, diaphragm and heart (FIG. 34c). The delta 23 transcript is normalised against ‘total dystrophin’ for each muscle group (n=3). […] Western blots (FIG. 34e) were performed on the tissues of each mouse and were quantified against a 50% and 10% C57BL10 control.
Four and a half month old to 5½ month old mdx mice were used in these experiments (n=3). The experiments were carried out in the Biomedical Sciences Unit, University of Oxford according to procedures authorised by the UK Home Office. […]
Control and treated muscle samples were homogenised in lysis buffer comprising 75 mM Tris-HCl (pH 6.5) and 10% Sodium Dodecyl Sulphate complemented with 5% 2-mercaptoethanol. […] Protein levels were measured by Bradford assay (Sigma) and quantified using BSA standards. […] Primary antibody was detected by binding of horseradish peroxidise-conjugated anti-mouse IgG with lumigen. Western blots were imaged (LiCOR Biosciences) and analysed using the Odyssey imaging system.
The dystrophin protein level in PPMO treated mdx muscles was quantified by western blot analysis. The density of the dystrophin band was quantified using Licor software and vinculin was used as the loading control. […]

For “Pip9d2: Pip9 series peptide (SEQ ID Nos 320-328) conjugated to PMODMD (R[Ahx]RR[βAla]RFQILY[βAla]R[Ahx]R[βAla]; also: conjugated to PMO (PMODMD))”, the “dystrophin expression in the heart” value [1] was “negligible dystrophin production” and the “dystrophin protein level by western blot (vinculin loading control)” value [2] was “negligible dystrophin production”.
